Here are results for 19 molecules from patent publication US20040116420A1 (priority 2001, published 2004).

Series [1] has as its target T1, HSV-1 protease (Human herpesvirus 1, UniProt P10210).
T1 construct: 6xHis (N); made in house; host or cells: baculovirus expression system
As to the kind of experiment: Enzymatic assay for HSV-1 protease (assembly) inhibitor, fluorescence polarization. It counts as biochemical. To be noted: read-out: HSV-1 Enzyme inhibition IC50. An outline of the steps: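 Fluorescence polarization read-out: after avidin stop, cleavage of a biotinylated DTAF-labelled release-site peptide by recombinant N-His6 HSV-1 protease was compared with no-inhibitor wells. Enzyme and compound were preincubated 30 min, then substrate reacted 60 min, all at room temperature, pH 7.4 citrate buffer with TCEP.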

Series [2] concerns HSV-1. The series can be described thus: Antiviral activity, HSV-1 in Vero cells, plaque method. It is filed as cell-based. To be noted: Human alphaherpesvirus 1, 20 hours, 90% inhibition of plaque formation. A digest of the protocol:
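This is a virus-yield read-out. The culture medium was frozen at −80° C and thawed, and the plaques it formed were counted. It came from Vero monolayers infected with 50,000 pfu HSV-1 and then exposed to the compound for 20 h at 37° C. EC90 is the concentration inhibiting 90% of plaque formation relative to the untreated infected control.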

For series [3], the system named is Vero cells. As to the kind of experiment: Cytotoxicity, Vero cells, Alamar Blue. It is filed as cell-based. The settings on record: 25 μM, 20 hours. The protocol: An Assay Method for Cytotoxicity
The Vero cells were sown on a 96-well plate and then cultured overnight. The culture supernatant was removed, and 200 μl of 2% FBS-DMEM comprising 25 μM of the test compound was added. In this case, a substance to which 2% FBS-DMEM not comprising any test compound had been added was determined as a control. These cells were incubated in the presence of 5% CO2 at 37° C. for 20 hours. Alamar Blue (20 μl) was added to the cells, and cells were incubated for about 6 hours until the color of the control changed. The ratio of the absorbance was assayed using a microplate reader for absorption, and the value relative to the control was determined to be the ratio of living cells.
(Resazurin is reduced to fluorescent resorufin, in cell work by metabolically active cells.)

T1 sequence (P10210 1-247): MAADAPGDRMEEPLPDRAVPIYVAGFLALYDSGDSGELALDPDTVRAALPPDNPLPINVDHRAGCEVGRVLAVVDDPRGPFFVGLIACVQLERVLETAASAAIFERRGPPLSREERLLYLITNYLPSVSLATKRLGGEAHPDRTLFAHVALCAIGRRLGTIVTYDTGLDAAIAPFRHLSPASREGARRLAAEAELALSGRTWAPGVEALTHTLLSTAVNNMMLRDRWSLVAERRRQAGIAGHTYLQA

Consider `Cc1c(NC(=O)OC(C)(C)C)ccc2nc(N3C[C@H](OCc4ccccc4)C[C@H]3C(=O)N(C)CCc3cccnc3)oc(=O)c12` [Compound No.115, (2-{4R-Benzyloxy-2S-[methyl-(2-pyridin-3-yl-ethyl)-carbamoyl]-pyrrolidin-1-yl}-5-methyl-4-oxo-4H-benzo[d][1,3]oxazin-6-yl)-carbamic acid tert-butyl ester], for which the half-maximal inhibitory concentration (IC50) (in general, the midpoint of a concentration-inhibition curve) in series [1] is more than 20 µM. The 90% effect level in series [2] (EC90) was put at 6.1 µM. Moreover, the “Cell viability (% of control)” value in series [3] came to 71.4%.
`Cc1c(NC(=O)OC(C)(C)C)ccc2nc(N[C@@H](CC(C)C)C(=O)N(C)CCc3cccnc3)oc(=O)c12` [Compound No.68, (5-Methyl-2-{3-methyl-1S-[methyl-(2-pyridin-3-yl-ethyl)-carbamoyl]-butylamino}-4-oxo-4H-benzo[d][1,3]oxazin-6-yl)-carbamic acid tert-butyl ester]: the concentration for half-maximal inhibition (IC50) in series [1] is 2 µM. In addition, the concentration for an effect of 90% (EC90) (usually the point of the concentration-response curve where the effect stands at 90%) in series [2] turned out to be 6.1 µM. Also, in series [3], the “Cell viability (% of control)” value is 66.9%.
The corresponding values for `Cc1c(NC(=O)OC(C)(C)C)ccc2nc(N[C@H](C(=O)N(C)CCc3ccccn3)C(C)(C)C)oc(=O)c12` [Compound No.44, (2-{2,2-dimethyl-1S-[methyl-(2-pyridin-2-yl-ethyl)-carbamoyl]-propylamino}-5-methyl-4-oxo-4H-benzo[d][1,3]oxazin-6-yl)-carbamic acid tert-butyl ester] are more than 20 µM, 5.9 µM and 66.2%.
The corresponding values for `Cc1c(NC(=O)OC(C)(C)C)ccc2nc(N3CCC[C@H]3C(=O)N(C)Cc3ccccn3)oc(=O)c12` [Compound No.90, {5-Methyl-2-[2S-(methyl-pyridin-2-ylmethyl-carbamoyl)-pyrrolidin-1-yl]-4-oxo-4H-benzo[d][1,3]oxazin-6-yl}-carbamic acid tert-butyl ester] are 16.9 µM, more than 12.5 µM and 93.6%.
The like results for `Cc1c(NC(=O)OC(C)(C)C)ccc2nc(N3C[C@H](OCc4ccccc4)C[C@H]3C(=O)NCc3ccncc3)oc(=O)c12` [Compound No.111, (2-{4R-Benzyloxy-2S-[(pyridin-4-ylmethyl)-carbamoyl]-pyrrolidin-1-yl}-5-methyl-4-oxo-4H-benzo[d][1,3]oxazin-6-yl)-carbamic acid tert-butyl ester] were, in that order, 3.3 µM, 7.8 µM and 80.4%.
With `Cc1c(NC(=O)OC(C)(C)C)ccc2nc(N[C@@H](Cc3ccccc3)C(=O)N(C)Cc3ccccn3)oc(=O)c12` [Compound No.57, {5-Methyl-2-[1S-(methyl-pyridin-2-ylmethyl-carbamoyl)-2-phenyl-ethylamino]-4-oxo-4H-benzo[d][1,3]oxazin-6-yl}-carbamic acid tert-butyl ester], the half-inhibitory concentration (IC50) in series [1] came out at 1.7 µM. Besides, the concentration for an effect of 90% (EC90) in series [2] is less than 3.2 µM. Also, the “Cell viability (% of control)” value in series [3] amounted to 71.3%.
The like results for `CCCc1ccc(C(=O)Nc2ccc3nc(NC(C)(C)C(=O)N(C)CCc4ccccn4)oc(=O)c3c2C)cc1` [Compound No.166, N-(5-Methyl-2-{1-methyl-1-[methyl-(2-pyridin-2-yl-ethyl)-carbamoyl]-ethylamino}-4-oxo-4H-benzo[d][1,3]oxazin-6-yl)-4-propyl-benzamide] were, in that order, 1.2 µM, 5.8 µM and 15.9%.
The corresponding values for `CCOc1ccc(C(=O)Nc2ccc3nc(NC(C)(C)C(=O)N(C)CCc4ccccn4)oc(=O)c3c2C)cc1` [Compound No.164, 4-Ethoxy-N-(5-methyl-2-{1-methyl-1-[methyl-(2-pyridin-2-yl-ethyl)-carbamoyl]-ethylamino}-4-oxo-4H-benzo[d][1,3]oxazin-6-yl)-benzamide] are 1.4 µM, 6.2 µM and 47.7%.
With `Cc1c(NC(=O)c2cc(Cl)sc2Cl)ccc2nc(NC(C)(C)C(=O)N(C)CCc3ccccn3)oc(=O)c12` [Compound No.181, 2,5-Dichloro-thiophene-3-carboxylic acid (5-methyl-2-{1-methyl-1-[methyl-(2-pyridin-2-yl-ethyl)-carbamoyl]-ethylamino}-4-oxo-4H-benzo[d][1,3]oxazin-6-yl)-amide], the concentration for half-maximal inhibition (IC50) in series [1] stood at 1.8 µM. The same molecule came in with an EC90 in series [2] of 10.9 µM. Besides, in series [3], the “Cell viability (% of control)” value is on record as 44.3%.
The like results for `CCCCCCCC(=O)Nc1ccc2nc(NC(C)(C)C(=O)N(C)CCc3ccccn3)oc(=O)c2c1C` [Compound No.196, Octanoic acid (5-methyl-2-{1-methyl-1-[methyl-(2-pyridin-2-yl-ethyl)-carbamoyl]-ethylamino}-4-oxo-4H-benzo[d][1,3]oxazin-6-yl)-amide] were, in that order, 0.8 µM, 11.5 µM and 86.5%.
Consider `Cc1c(NC(=O)OC(C)(C)C)ccc2nc(N(C)[C@@H](Cc3ccccc3)C(=O)NCc3ccncc3)oc(=O)c12` [Compound No.80, [5-Methyl-2-(methyl-{2-phenyl-1S-[(pyridin-4-ylmethyl)-carbamoyl]-ethyl}-amino)-4-oxo-4H-benzo[d][1,3]oxazin-6-yl]-carbamic acid tert-butyl ester], for which, in series [1], the IC50 was determined as 0.9 µM. The molecule also gave an EC90 in series [2] of 5.9 µM. Also, the “Cell viability (% of control)” value in series [3] was 48.0%.
Regarding `Cc1c(NC(=O)OC(C)(C)C)ccc2nc(N3CCC[C@H]3C(=O)N(C)CCc3ccccn3)oc(=O)c12` [Compound No.91, (5-Methyl-2-{2S-[methyl-(2-pyridin-2-yl-ethyl)-carbamoyl]-pyrrolidin-1-yl}-4-oxo-4H-benzo[d][1,3]oxazin-6-yl)-carbamic acid tert-butyl ester], the half-maximal inhibitory concentration (IC50) in series [1] was more than 20 µM. In series [2], this molecule showed a concentration for an effect of 90% (EC90) of more than 12.5 µM. Further, the “Cell viability (% of control)” value in series [3] came out at 92.3%.
The like results for `Cc1c(NC(=O)c2sccc2Cl)ccc2nc(NC(C)(C)C(=O)N(C)CCc3ccccn3)oc(=O)c12` [Compound No.179, 3-Chloro-thiophene-2-carboxylic acid (5-methyl-2-{1-methyl-1-[methyl-(2-pyridin-2-yl-ethyl)-carbamoyl]-ethylamino}-4-oxo-4H-benzo[d][1,3]oxazin-6-yl)-amide] were, in that order, 1 µM, 6.6 µM and 61.7%.
For the molecule `Cc1c(NC(=O)OC(C)(C)C)ccc2nc(N3CCC[C@H]3C(=O)N(C)CCc3cccnc3)oc(=O)c12` [Compound No.92, (5-Methyl-2-{2S-[methyl-(2-pyridin-3-yl-ethyl)-carbamoyl]-pyrrolidin-1-yl}-4-oxo-4H-benzo[d][1,3]oxazin-6-yl)-carbamic acid tert-butyl ester], the half-inhibitory concentration (IC50) in series [1] was more than 20 µM. The molecule further had an EC90 in series [2] of more than 12.5 µM. Also, the “Cell viability (% of control)” value in series [3] is on record as 87.2%.
The corresponding values for `CCCCc1ccc(C(=O)Nc2ccc3nc(NC(C)(C)C(=O)N(C)CCc4ccccn4)oc(=O)c3c2C)cc1` [Compound No.167, 4-Butyl-N-(5-methyl-2-{1-methyl-1-[methyl-(2-pyridin-2-yl-ethyl)-carbamoyl]-ethylamino}-4-oxo-4H-benzo[d][1,3]oxazin-6-yl)-benzamide] are 1.7 µM, 3.6 µM and −6.1%.
The corresponding values for `Cc1c(NC(=O)OC(C)(C)C)ccc2nc(N3CCCC[C@H]3C(=O)NCc3ccccn3)oc(=O)c12` [Compound No.102, (5-Methyl-4-oxo-2-{2S-[(pyridin-2-ylmethyl)-carbamoyl]-piperidin-1-yl}-4H-benzo[d][1,3]oxazin-6-yl)-carbamic acid tert-butyl ester] are 1.6 µM, more than 12.5 µM and 64.4%.
The like results for `Cc1c(NC(=O)c2ccccc2[N+](=O)[O-])ccc2nc(NC(C)(C)C(=O)N(C)CCc3ccccn3)oc(=O)c12` [Compound No.140, N-(5-Methyl-2-{1-methyl-1-[methyl-(2-pyridin-2-yl-ethyl)-carbamoyl]-ethylamino}-4-oxo-4H-benzo[d][1,3]oxazin-6-yl)-2-nitro-benzamide] were, in that order, 4.2 µM, more than 12.5 µM and 96.8%.
As to `Cc1c(NC(=O)c2cccc([N+](=O)[O-])c2)ccc2nc(NC(C)(C)C(=O)N(C)CCc3ccccn3)oc(=O)c12` [Compound No.141, N-(5-Methyl-2-{1-methyl-1-[methyl-(2-pyridin-2-yl-ethyl)-carbamoyl]-ethylamino}-4-oxo-4H-benzo[d][1,3]oxazin-6-yl)-3-nitro-benzamide], in series [1], the IC50 worked out at 8 µM. For the same molecule, the EC90 in series [2] was more than 12.5 µM. Also, the “Cell viability (% of control)” value in series [3] came out at 80.4%.
The like results for `Cc1c(NC(=O)c2cccc(OC(F)(F)F)c2)ccc2nc(NC(C)(C)C(=O)N(C)CCc3ccccn3)oc(=O)c12` [Compound No.172, N-(5-Methyl-2-{1-methyl-1-[methyl-(2-pyridin-2-yl-ethyl)-carbamoyl]-ethylamino}-4-oxo-4H-benzo[d][1,3]oxazin-6-yl)-3-trifluoromethoxy-benzamide] were, in that order, 1.2 µM, 9 µM and 17.4%.
